Usually Ki stands for the dissociation constant of the complex between target and ligand, obtained from inhibition or displacement. Broadly, the half-life is the time needed for the level to fall by half in the phase considered.

Some results are limits rather than exact numbers.

One compound from US20160176924A1, “MODIFIED PEPTIDES AS POTENT INHIBITORS OF THE PSD-95/NMDA RECEPTOR INTERACTION” (priority 2008, published 2016) can be followed below.

For data set [1], the target named is T1, PDZ1-2 of PSD-95 (Homo sapiens, UniProt P78352, I195W).
T1 construct: PDZ1-2 (residues 61-249) tandem; made in house; host or cells: E. coli BL21-DE3 pLysS
Description: Stopped-flow fluorimetry (fluorescence titration assay). Type of data set: binding. Here is the method: The HIS-PDZ2 and HIS-PDZ1-2 expression constructs of PSD-95 were genetically manipulated to encode a tryptophan, (in position 51 of SEQ ID NO: 4 and position 145 in SEQ ID NO: 8, respectively) instead of isoleucine. Binding between PDZ2 and PDZ1-2 and peptide ligand 74 was then monitored and quantified, by measuring the fluorescence increase from this tryptophan upon ligand recognition. (excitation λ at 280 nm, emission λ>320 nm). Stopped-flow measurements were performed at 10° C. or 25° C. on an SX-20MV stopped-flow spectrometer (Applied Photophysics, Leatherhead, UK). The peptide, in varying amounts, was rapidly mixed with a constant amount of PDZ and the change in fluorescence was measured over time. The fluorescence versus time plots was fitted to a single or double exponential equation, from which one or two observed rate constants were obtained. Observed rate constants were then plotted against the concentration of the varied species and microscopic rate constants determined by fitting the data to the equation for a bimolecular association (Eq. 1)
kobs=((kon^2(n−[A]0)^2+koff^2+2konkoff(n+[A]0))^0.5 (Eq. 1) […]
The equilibrium dissociation constant Kd of the PDZ-peptide complex was calculated by the experimental determined kon and koff.

The nature of data set [2]: Human blood plasma stability assay. Type of data set: in vitro ADME. Here is the method: In this assay, the half-life (T1/2) of a compound in blood plasma is measured in vitro, whereby its susceptibility to degradation by proteases, peptidases and general plasma contents is quantified.
Compounds of interest were dissolved in human blood plasma (270 μl; 3H Biomedical, Sweden, cat no 1300-1-P50) to a concentration of 0.25 mM (30 μL of 2.5 mM) and incubated at 37° C. Aliquots (30 μl) were removed at various time intervals (0, 5, 10, 20, 40, 80, 160, 320, 960, 1280, 2550, 4560 and 7240 min) and quenched with 60 μL trichloroacetic acid (aq., 5%). The aliquots were vortexed, and incubated for at least 15 min, at 4° C. prior to centrifugation at 18,000 g for 2 min and the supernatant was analyzed by RP-HPLC to quantify the remaining compound (absorbance at 218 nm).

Data set [3] addresses T2, PDZ1-2 tandem of PSD-95 (Homo sapiens, UniProt P78352).
T2 construct: PDZ1-2 (residues 61-249) tandem; made in house; host or cells: E. coli BL21-DE3 pLysS
The data set can be described thus: FP heterologous competition binding assay. Particulars: mean ± SEM.

In data set [4] the target is T3, PDZ1 of PSD-95 (Homo sapiens, UniProt P78352).
T3 construct: PSD-95 PDZ1 (residues 61-151); made in house; host or cells: E. coli BL21-DE3 pLysS
The data set can be described thus: FP heterologous competition binding assay. To be noted: FP competition; mean ± SEM; NA = no activity/affinity.

In data set [5] the target is T4, PDZ2 of PSD-95 (Homo sapiens, UniProt P78352).
T4 construct: PDZ2 (residues 155-249); made in house; host or cells: E. coli BL21-DE3 pLysS
Description: FP heterologous competition binding assay. Particulars: FP competition; mean ± SEM; NA = no activity/affinity.

The subject of data set [6] is cultured cortical neurons. The data set can be described thus: Neuronal NMDA excitotoxicity assay (LDH release). Format: cell-based, rat. To be noted: 500 nM. From the text:
When cultured cortical neurons are exposed to high concentrations of NMDA, an excitoxic cascade is initiated, which leads to cellular damage and ultimately neuronal cell death. Consequently, the cell membranes are destroyed, and cytoplasmic enzymes are released into the cell surroundings. The extent of this neuronal cell death can be quantified by measuring the release of cytoplasmic lactate dehydrogenase (LDH) enzyme into the cell medium. The compounds of interest and control compound (3) are investigated with respect to their abilities to attenuate NMDA-mediated toxicity. Compounds that are active in this assay are both membrane permeable, and can prevent ex vivo excitotoxicity, which are important properties for therapeutics towards excitotoxicity mediated diseases.
Cortical neurons were surgically removed from rats (e.g. E21) and then cultured for 7-9 days in vitro in Neurobasal A medium with B-27 supplement (each supplied by Invitrogen), further supplemented with 1 mM glutamine, 50 units/ml penicillin, and 50 μg/ml streptomycin. The following steps were then performed:
1. Samples of the cultured cortical neurons were removed from the Neurobasal-A based culture medium, at various time points prior to exposure to compound, and placed into “transfection medium” ([…]; as defined by Bading et al (1993) Science 260, 181-186) comprising: 10% modified Minimum Essential Medium (supplied by Invitrogen; product no: 21090022; containing Earles salt, but no L-glutamine), 90% Salt-Glucose-Glycine (SGG) medium: (114 mM NaCl, 0.219% NaHCO3, 5.292 mM KCL, 1 mM MgCl2, 2 mM CaCl2, 10 mM HEPES, 1 mM Glycine, 30 mM glucose, 0.5 mM sodium pyruvate, 0.1% Phenol Red), insulin-transferrin-selenite supplement (supplied by Sigma: 7.5 μg insulin/ml, 7.5 μg transferring/ml and 7.5 ng sodium selenite/ml); with a final osmolarity of 325 mosm/l. All subsequent steps were performed in this TM medium. 2. Samples of neurons are exposed to an NMDAR/PSD-95 inhibitor of the invention (compounds 40, 52-90) at a final concentration of between 0.05-50 μM for a period of between 0.5 to 1.5 hours. […] 3. Each sample of neurons was washed at least one time in TM medium to remove the NMDAR/PSD-95 inhibitor, and placed in TM medium. 4. After various periods of time, the samples of neurons were exposed to NMDA at a concentration of between 10-100 μM for a period of 0.5 to 1.5 hours, preferably 1 hour, after which the samples were again placed in TM medium for 24 hours. 5. LDH in the cell medium was quantified using commercial available kits (e.g. Promega Biotech AB, cat no G1780).

Take `CC[C@H](C)[C@H](NC(=O)CCOCCOCCOCCOCCOCCOCCOCCOCCOCCOCCOCCOCCOCCC(=O)N[C@H](C(=O)N[C@@H](CCC(=O)O)C(=O)N[C@@H](CO)C(=O)N[C@@H](CC(=O)O)C(=O)N[C@H](C(=O)O)C(C)C)[C@@H](C)CC)C(=O)N[C@@H](CCC(=O)O)C(=O)N[C@@H](CO)C(=O)N[C@@H](CC(=O)O)C(=O)N[C@H](C(=O)O)C(C)C` [(IESDV)2PEG12 (74), (IESDV)2PEG12]: the Ki is about 0.1 µM in data set [1], about 0.1 µM in data set [3], 22 ± 1.4 µM in data set [4] and 3.1 ± 0.13 µM in data set [5]. For the same compound, the “degradation in human blood plasma, in words” value in data set [2] is given as “no significant degradation could be detected over a time period of 6 days”. Also, the half-life at […] in data set [2] (human, plasma, Blood plasma half life (T1/2)) was over 133 h. Also, the “effect on NMDA-mediated excitotoxicity, in words” value in data set [6] is reported as “inhibit neuronal excitotoxicity, as efficiently as the clinical candidate Tat-N2B (3)”.
